We go through one compound from publication PMC4943339 (Molecular pharmaceutics, 2015).

This data set is described as follows: Pharmacokinetics of vancomycin after i.v. or pulmonary. To be noted: rabbits, 1 mg/kg i.v. bolus, plasma, LC/MS, non-compartmental, average ± S.D., n = 3; SD.

In general, Cmax refers to the maximum level reached in the sampled fluid or tissue. In general, Tmax refers to the time from dosing to the highest level. As for `CN[C@H](CC(C)C)C(=O)N[C@H]1C(=O)N[C@@H](CC(N)=O)C(=O)N[C@H]2C(=O)N[C@H]3C(=O)N[C@H](C(=O)N[C@H](C(=O)O)c4cc(O)cc(O)c4-c4cc3ccc4O)[C@H](O)c3ccc(c(Cl)c3)Oc3cc2cc(c3O[C@@H]2O[C@H](CO)[C@@H](O)[C@H](O)[C@H]2O[C@H]2C[C@](C)(N)[C@H](O)[C@H](C)O2)Oc2ccc(cc2Cl)[C@H]1O` [vancomycin], the “AUC(0-∞)” value was 12135.34 ± 616.52 ng·h/mL, the AUClast stood at 12069.85 ± 638.15 ng·h/mL, the C0 was 5347 ± 4927 ng/mL and the Clearance came out at 1.376 ± 0.0708 mL/min/kg. The Cmax is 3330 ± 1119 ng/mL, the Half-Life came out at 3.38 ± 0.43 h, the Tmax turned out to be 0.67 ± 0.29 h and the “Volume of Dist.” value was 0.40389 ± 0.06483 L/kg.
